Data as given in patent publication US20100322979A1, “Peptidomimetic Resorbable Peptide-Polymer Hybrid Polyester Nanoparticles” (UNIVERSITY OF SOUTH CAROLINA, priority 2009, published 2010).
Like-named read-outs stand apart in the source and are kept apart here. Ends that are not written are not given here.

Legend:
[1] = NP morphology and size distribution by electron microscopy and dynamic light scattering; assay type: physicochemical; conditions: Example 2
From the text: Fumarate functionalized poly(lactide-co-glycolide) (PLGF) NPs are conjugated with CV6K2 peptide to stabilize the NPs through specific interactions between the amino acid side chains. Low molecular weight poly(lactide-co-glycolide) (LMW PLGA) are synthesized by ring opening polymerization of a mixture of lactide and glycolide monomers. PLGF was synthesized by polymerization of ULMW PLGA with fumaryl chloride (FuCl). The fumarate groups in PLGF macromer provide functionality for covalent attachment of ligands which bind with high specificity to receptors on tumor-associated cells, like the αvβ3 integrin receptor. ULMW PLGA with number-average molecular weight in the range 1-3 kDa was used in the synthesis of PLGF for highest density of unsaturated fumarate groups for ligand conjugation. […] The morphology and size distribution of the NPs were determined by SEM and dynamic light scattering, respectively. […]
Nanoparticle (NP) self-assembly and characterization: PLAF-CV6K2 or PLGF-CV6K2 macromers were dissolved in a solution of 1 mL DMF and 8 mL dimethysulfoxide (DMSO). […] The size distribution of NPs was measured by dynamic light scattering (DLS). […] At each time point, NPs size was measured with DLS. […] The fraction of mass remaining was determined by dividing the dried mass in the supernatant at time t by the initial mass at time zero.

[2] = Release kinetics of Paclitaxel from NPs in-vitro in PBS (pH 7.4); assay type: physicochemical
Procedure: Degradation and release characteristics of NPs. PLGF macromer with 100:0 lactide to glycolide ratio (PLAF) was synthesized by condensation polymerization. CV6K2 peptide was conjugated to PLAF to produce CV6K2-PLAF macromer. PLGF-PLEOF and CV6K2-PLGF NPs were produced by dialysis of the macromers in dimethylsulfoxide/dimethylformamide (DMSO/DMF) against water. Degradation of PLGF-PLEOF NPs was non-linear with incubation. […] To measure release kinetics, Paclitaxel was used as the surrogate molecule. Paclitaxel loaded NPs were prepared by dialysis. After dialysis, the NPs were dissolved in DMSO and 3 ml of acetonitrile-water mixture (50:50 v/v) was added. After 2 h, the suspension was centrifuged and the amount of Paclitaxel in the supernatant was measured by isocratic reverse-phase HPLC with a photodiode array detector at the wavelength of 227 nm. The encapsulation efficiency ranged from 70 to 56% and decreased with increasing Paclitaxel concentration. […]
Release profiles of Paclitaxel from CV6K2 NPs: NPs (6% Paclitaxel by weight of the PLAF or PLGF macromer) were prepared by dialysis. After dialysis for 24 h to self-assemble the macromers and to remove the unencapsulated Paclitaxel, encapsulation efficiency was determined by HPLC. The release kinetics of Paclitaxel from the NPs was measured in-vitro in PBS (pH 7.4) for up to 28 days. […]

HCT116 tumor cell line = experiment: Tumor cell toxicity, MTT assay; assay type: cell-based; conditions: Homo sapiens, HCT-116, 72 h; 40 μg/ml Paclitaxel, after 3 days; read-out: cell viability (percentage of drug-free samples)
Procedure: Tumor cell toxicity was determined by incubating Paclitaxel drug, encapsulated in NPs, with HCT116 tumor cell line, seeded at a density of 5×10^4 cells/cm^2 and cultured in basal media (40 μg/ml Paclitaxel) for 24, 48, and 72 h. At each time point, suspension was removed, cells were washed with PBS, and viability was assessed by the MTT assay. FIG. 3(d) compares cell viability of HCT116 cells (expressed as the percentage of the values obtained from cells in the presence of drug compared to those in drug-free samples) incubated with 40 μg/ml Paclitaxel with that incubated with the same concentration encapsulated in PLGF NPs. […] Cell viability of Paclitaxel in solution after 3 days was 40% while that encapsulated in NPs was 28%. […] Toxicity of CV6K2-PLGF NPs to normal cells was assessed with bone marrow stromal (BMS) cells isolated from the bone marrow of Wistar rats. BMS cells were seeded in 24 well plates in primary media at a density of 4×10^4 cells/cm^2, incubated for 24 h for cell attachment. After cell attachment, the media was replaced with media containing […] of CV6K2-PLGF NPs and incubated for 1, 2, and 3 days. At each time point, the cells were washed with PBS to remove the free NPs, and the fraction of viable cells was measured by the MTT assay.

MCF-7 cells = experiment: Binding of cyclic peptide grafted NPs to tumor cells, confocal microscopy; assay type: cell-based
From the text: (§1) Targeting to tumor endothelial cells by grafting cyclic c(-RGDfC-) peptide to NPs: The linear D-Phe-Cys-Arg-Gly-Asp peptide was synthesized manually using Fmoc chemistry. After peptide chain elongation, the linear peptide was cyclized directly on the peptidyl resin by coupling the carboxylate group on aspartic acid to the amine group on phenylalanine in the peptide sequence. The cyclized peptide was side-chain deprotected, cleaved from the resin, precipitated in cold ether, and purified by preparative high-performance liquid chromatography (HPLC). The cyclic peptide was characterized by Electro Spray Ionization (ESI) spectrometry For grafting, […] peptide was incubated with NPs at ambient conditions for 10 h. After grafting, the NPs were purified by dialysis against water and incubated with MCF-7 and U87MG tumor cells. After incubation, unattached NPs were removed by washing, cells were fixed, and stained with phalloidin (for cytoskeleton) and DAPI (for cell nuclei) and imaged with confocal microscopy. FIGS. 5(a) and 5(b) show the image of MCF-7 and U87MG cells, respectively. The bright dots in FIG. 5(b) and their absence in FIG. 5(a) are the FITC-stained c(-GRGfC-) peptide grafted NPs that are attached/internalized by U87MG cells that have high expression of αvβ3 integrin receptor.

[3] = tested on: U87MG cells (high expression of αvβ3 integrin receptor); experiment: as above; assay type: cell-based
From the text: as §1

mouse breast cancer MTCL = experiment: In vivo effect of the NPs on host toxicity and anti-tumor efficacy; conditions: tail vein injection; Dox 6 mg/kg of body weight where present
Procedure: In accordance with the present disclosure, a mouse breast cancer MTCL grown under the back skin of syngeneic C3H mice was utilized. When the tumor size reached 300 mm^3, mice were randomly divided into 6 groups (10 mice/group) and received one of these treatments by tail vein injection: PBS, PLAA-EO NPs, PLAA-CV6K2 NPs, Dox, Dox+PLAA-EO NPs, and Dox+PLAA-CV6K2 NPs. The injected Dox amount was 6 mg/kg of body weight. After the treatment, body weight and tumor size were measured daily and the results are shown in FIGS. 10a and 10b, respectively. […] Near-infrared (NIR) imaging was used to determine in vivo distribution of the NPs loaded with near-infrared dye IRDye 800RS Carboxylate (absorption at 786 nm). The infrared intensity in the intestinal region was at least 100 times higher than the other regions (confirmed by sacrificing the animal and directly imaging the intestinal tissue as shown in the inset of FIG. 10c).

CVVVVVVKK [CV6K2 NPs, NPs self-assembled from the CV6K2 peptide only]
average diameter (NP size), DLS [1]: 70 nm
duration of Paclitaxel release [2]: 3 days
duration of Paclitaxel release ([2]; listed as peptide): 5 days

CC(=O)O[C@H]1C(=O)[C@@]2(C)[C@H]([C@H](OC(=O)c3ccccc3)[C@]3(O)C[C@H](OC(=O)[C@H](O)[C@@H](NC(=O)c4ccccc4)c4ccccc4)C(C)=C1C3(C)C)[C@]1(OC(C)=O)CO[C@@H]1C[C@@H]2O [Paclitaxel]
viability at 40 µg/mL (HCT116 tumor cell line): 40%

c(-GRGfC-) grafted NPs: FITC-stained NPs grafted with cyclic D-Phe-Cys-Arg-Gly-Asp peptide
attachment/internalization of FITC-stained grafted NPs (MCF-7 cells): absence
attachment/internalization of FITC-stained grafted NPs [3]: attached/internalized

COc1cccc2c1C(=O)c1c(O)c3c(c(O)c1C2=O)C[C@@](O)(C(=O)CO)C[C@@H]3O[C@H]1C[C@H](N)[C@H](O)[C@H](C)O1 [Dox]
host toxicity (body weight change) (mouse breast cancer MTCL): highest body weight loss
